Laboratory results published in PubChem BioAssay (NCI).
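96-well plates; 48 h exposure; 5 concentrations. Endpoints by linear interpolation between flanking doses. Not reached: highest tested concentration assigned. Here, GI50 denotes the concentration required for 50% inhibition of growth. TGI denotes the concentration required for complete inhibition of growth.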

Tests used:
Assay in all cases: NCI tumour cell line growth inhibition, 48 h
[1] = system: SW-620 colon
[2] = system: HCC-2998 colon
[3] = system: NCI-H522 lung
[4] = system: SNB-75 CNS
[5] = system: TK-10 renal
[6] = system: CAKI-1 renal
[7] = system: OVCAR-3 ovarian
[8] = system: LOX IMVI melanoma
[9] = system: NCI/ADR-RES ovarian
[10] = system: SK-MEL-5 melanoma
[11] = system: SF-539 CNS
[12] = system: HOP-92 NSCLC
[13] = system: 786-0 renal
[14] = system: RPMI-8226 leukemia
[15] = system: SK-MEL-28 melanoma
[16] = system: NCI-H460 lung
[17] = system: DU-145 prostate
[18] = system: HCT-15 colon
[19] = system: OVCAR-8 ovarian
[20] = system: K-562 leukemia
[21] = system: HS 578T breast
[22] = system: SF-268 CNS
[23] = system: BT-549 breast
[24] = system: MDA-MB-435
[25] = system: PC-3 prostate
[26] = system: SK-OV-3 ovarian
[27] = system: MDA-MB-231 breast
[28] = system: HL-60(TB) leukemia
[29] = system: SF-295 CNS
[30] = system: SN12C renal
[31] = system: MOLT-4 leukemia
[32] = system: COLO 205 colon
[33] = system: A549 NSCLC
[34] = system: UO-31 renal
[35] = system: SNB-19 CNS
[36] = system: HCT-116 colon
[37] = system: HOP-62 NSCLC
[38] = system: OVCAR-5 ovarian
[39] = system: KM12 colon
[40] = system: NCI-H226 lung
[41] = system: NCI-H23 lung
[42] = system: SK-MEL-2 melanoma
[43] = system: OVCAR-4 ovarian
[44] = system: SR leukemia
[45] = system: UACC-257 melanoma
[46] = system: EKVX NSCLC
[47] = system: HT29 colon
[48] = system: UACC-62 melanoma
[49] = system: CCRF-CEM leukemia
[50] = system: RXF 393 renal
[51] = system: M14 melanoma
[52] = system: T-47D breast
[53] = system: A498 renal
[54] = system: MCF7 breast
[55] = system: MALME-3M melanoma
[56] = system: U251 CNS
[57] = system: ACHN renal
[58] = system: IGROV1 ovarian

SMILES: CC/C(=C(\CC)c1ccc(OCCN(CC)CC)cc1)c1ccc(OCCN(CC)CC)cc1
- GI50 [1]: 2.33 µM
- TGI [1]: 7.79 µM
- GI50 [2]: 5.57 µM
- TGI [2]: 18.9 µM
- GI50 [3]: 1.83 µM
- TGI [3]: 4.67 µM
- GI50 [4]: 2.83 µM
- TGI [4]: 11 µM
- GI50 [5]: 3.34 µM
- TGI [5]: 12.1 µM
- GI50 [6]: 3.17 µM
- TGI [6]: 15.7 µM
- GI50 [7]: 3.45 µM
- TGI [7]: 16.1 µM
- GI50 [8]: 1.19 µM
- TGI [8]: 5.5 µM
- GI50 [9]: 4.89 µM
- TGI [9]: 17.9 µM
- GI50 [10]: 1.48 µM
- TGI [10]: 2.86 µM
- GI50 [11]: 1.29 µM
- TGI [11]: 3.85 µM
- GI50 [12]: 0.879 µM
- TGI [12]: 4.72 µM
- GI50 [13]: 1.6 µM
- TGI [13]: 3.66 µM
- GI50 [14]: 1.42 µM
- TGI [14]: 4.63 µM
- GI50 [15]: 1.67 µM
- TGI [15]: 3.37 µM
- GI50 [16]: 3.86 µM
- TGI [16]: 15.3 µM
- GI50 [17]: 6.05 µM
- TGI [17]: 19.2 µM
- GI50 [18]: 1.74 µM
- TGI [18]: 11.2 µM
- GI50 [19]: 5.85 µM
- TGI [19]: 19.3 µM
- GI50 [20]: 1.79 µM
- TGI [20]: 10.5 µM
- GI50 [21]: 1.74 µM
- TGI [21]: 7.09 µM
- GI50 [22]: 5.43 µM
- TGI [22]: 18.3 µM
- GI50 [23]: 4.55 µM
- TGI [23]: 13.9 µM
- GI50 [24]: 1.86 µM
- TGI [24]: 7.28 µM
- GI50 [25]: 3.25 µM
- TGI [25]: 19.5 µM
- GI50 [26]: 3.48 µM
- TGI [26]: 12 µM
- GI50 [27]: 1.76 µM
- TGI [27]: 5.82 µM
- GI50 [28]: 3.8 µM
- TGI [28]: 9.84 µM
- GI50 [29]: 1.37 µM
- TGI [29]: 3.91 µM
- GI50 [30]: 5.32 µM
- TGI [30]: 21.3 µM
- GI50 [31]: 3.62 µM
- TGI [31]: 18.2 µM
- GI50 [32]: 1.47 µM
- TGI [32]: 3.07 µM
- GI50 [33]: 3.81 µM
- TGI [33]: 15.5 µM
- GI50 [34]: 0.996 µM
- TGI [34]: 11.3 µM
- GI50 [35]: 3.26 µM
- TGI [35]: 10.6 µM
- GI50 [36]: 1.03 µM
- TGI [36]: 6.25 µM
- GI50 [37]: 1.73 µM
- TGI [37]: 4.76 µM
- GI50 [38]: 3.96 µM
- TGI [38]: 17.7 µM
- GI50 [39]: 2.01 µM
- TGI [39]: 12.6 µM
- GI50 [40]: 3.87 µM
- TGI [40]: 13.7 µM
- GI50 [41]: 5.77 µM
- TGI [41]: 21.8 µM
- GI50 [42]: 1.9 µM
- TGI [42]: 7.58 µM
- GI50 [43]: 3.13 µM
- TGI [43]: 12.3 µM
- GI50 [44]: 1.38 µM
- TGI [44]: 6.55 µM
- GI50 [45]: 1.23 µM
- TGI [45]: 2.82 µM
- GI50 [46]: 4.02 µM
- TGI [46]: 20.4 µM
- GI50 [47]: 0.0759 µM
- TGI [47]: 3.78 µM
- GI50 [48]: 1.92 µM
- TGI [48]: 4.29 µM
- GI50 [49]: 2.51 µM
- TGI [49]: 25 µM
- GI50 [50]: 1.63 µM
- TGI [50]: 3.75 µM
- GI50 [51]: 0.771 µM
- TGI [51]: 2.27 µM
- GI50 [52]: 2.65 µM
- TGI [52]: 6.73 µM
- GI50 [53]: 0.76 µM
- TGI [53]: 3.31 µM
- GI50 [54]: 2.81 µM
- TGI [54]: 7.99 µM
- GI50 [55]: 1.81 µM
- TGI [55]: 5.87 µM
- GI50 [56]: 1.87 µM
- TGI [56]: 8.99 µM
- GI50 [57]: 3.99 µM
- TGI [57]: 18.7 µM
- GI50 [58]: 3.3 µM
- TGI [58]: 22.1 µM

SMILES: CN1CCN(Cc2ccc(NC(=O)c3cncc(C#Cc4c(N)ncc5cc(F)ccc45)c3)cc2C(F)(F)F)CC1
- GI50 [1]: 0.529 µM
- TGI [1]: 1.4 µM
- GI50 [2]: 2.04 µM
- TGI [2]: 11.1 µM
- GI50 [3]: 2.01 µM
- TGI [3]: 5.45 µM
- GI50 [4]: 2.02 µM
- TGI [4]: 7.84 µM
- GI50 [5]: 2.08 µM
- TGI [5]: 4.43 µM
- GI50 [6]: 3.3 µM
- TGI [6]: 10.1 µM
- GI50 [7]: 2.43 µM
- TGI [7]: 4.98 µM
- GI50 [8]: 0.587 µM
- TGI [8]: 1.26 µM
- GI50 [9]: 1.03 µM
- TGI [9]: 2.46 µM
- GI50 [10]: 0.794 µM
- TGI [10]: 1.52 µM
- GI50 [11]: 0.86 µM
- TGI [11]: 2.73 µM
- GI50 [12]: 0.2 µM
- TGI [12]: 2.03 µM
- GI50 [13]: 0.892 µM
- TGI [13]: 1.63 µM
- GI50 [14]: 1.09 µM
- TGI [14]: 2.83 µM
- GI50 [15]: 0.729 µM
- TGI [15]: 1.43 µM
- GI50 [16]: 0.904 µM
- TGI [16]: 1.9 µM
- GI50 [17]: 0.874 µM
- TGI [17]: 1.58 µM
- GI50 [18]: 0.631 µM
- TGI [18]: 1.31 µM
- GI50 [19]: 1.27 µM
- TGI [19]: 3.57 µM
- GI50 [20]: 0.005 µM
- TGI [20]: 1.09 µM
- GI50 [21]: 1.11 µM
- TGI [21]: 6.47 µM
- GI50 [22]: 0.884 µM
- TGI [22]: 1.9 µM
- GI50 [23]: 4.86 µM
- TGI [23]: 12.6 µM
- GI50 [24]: 0.532 µM
- TGI [24]: 1.15 µM
- GI50 [25]: 0.747 µM
- TGI [25]: 1.53 µM
- GI50 [26]: 6.3 µM
- TGI [26]: 13 µM
- GI50 [27]: 0.477 µM
- TGI [27]: 1.13 µM
- GI50 [28]: 0.289 µM
- TGI [28]: 1.49 µM
- GI50 [29]: 6.47 µM
- TGI [29]: 14 µM
- GI50 [30]: 1.39 µM
- TGI [30]: 3.84 µM
- GI50 [32]: 0.581 µM
- TGI [32]: 4.93 µM
- GI50 [33]: 0.887 µM
- TGI [33]: 1.73 µM
- GI50 [34]: 1.44 µM
- TGI [34]: 5.06 µM
- GI50 [35]: 0.87 µM
- TGI [35]: 1.57 µM
- GI50 [36]: 0.595 µM
- TGI [36]: 1.26 µM
- GI50 [37]: 2.4 µM
- TGI [37]: 12 µM
- GI50 [38]: 1.06 µM
- TGI [38]: 3.55 µM
- GI50 [39]: 0.0172 µM
- TGI [39]: 0.738 µM
- GI50 [40]: 0.442 µM
- TGI [40]: 8.56 µM
- GI50 [41]: 1.36 µM
- TGI [41]: 4.65 µM
- GI50 [42]: 1.44 µM
- TGI [42]: 6.14 µM
- GI50 [43]: 0.489 µM
- TGI [43]: 1.38 µM
- GI50 [44]: 1.47 µM
- TGI [44]: 50 µM
- GI50 [45]: 0.975 µM
- TGI [45]: 2.4 µM
- GI50 [46]: 2.8 µM
- TGI [46]: 10.2 µM
- GI50 [47]: 0.276 µM
- TGI [47]: 1.15 µM
- GI50 [48]: 1.88 µM
- TGI [48]: 5.18 µM
- GI50 [49]: 1.04 µM
- TGI [49]: 2.65 µM
- GI50 [50]: 0.836 µM
- TGI [50]: 1.57 µM
- GI50 [51]: 0.378 µM
- TGI [51]: 1.11 µM
- GI50 [52]: 6.57 µM
- TGI [52]: 20.2 µM
- GI50 [53]: 0.839 µM
- TGI [53]: 3.99 µM
- GI50 [54]: 0.591 µM
- TGI [54]: 1.35 µM
- GI50 [55]: 0.36 µM
- TGI [55]: 1.14 µM
- GI50 [56]: 1.04 µM
- TGI [56]: 2.27 µM
- GI50 [57]: 1.99 µM
- TGI [57]: 8.84 µM
- GI50 [58]: 0.813 µM
- TGI [58]: 3.02 µM
